{
  "source": "paper PMC11931604",
  "about": "(Drug Development Research, 2025)",
  "target": "D112_2N-mutant H3 HA (A/X-31) (Influenza A virus, UniProt P03438, D457N)",
  "assay_type": "cell-based, influenza A/H3N2 virus",
  "data": [
    {"smiles": "CC1CCC2(CC1)SC(C)C(=O)N2NC(=O)c1ccc(C(C)(C)C)cc1", "note": "(stereo not shown) [Compound 2c, 4‐(tert‐Butyl)‐N‐(2,8‐dimethyl‐3‐oxo‐1‐thia‐4‐azaspiro[4.5]decan‐4‐yl)benzamide]", "values": [
      {"measurement": "inhibition of membrane fusion in cells expressing D112_2N-substituted HA", "value": "no inhibition"}
    ]}
  ]
}
